Consider eleven molecules from PubChem BioAssay (NCI).

Test systems include SK-OV-3 ovarian; SNB-19 CNS; A549 NSCLC; OVCAR-8 ovarian; M14 melanoma; SNB-75 CNS; MALME-3M melanoma; EKVX NSCLC; HCC-2998 colon; NCI-H460 lung.
Test in all cases: NCI tumour cell line growth inhibition, 48 h

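1) Cells in 96-well plates. 2) Compound, 48 h, 5 concentrations. 3) Linear interpolation between surrounding doses. 4) Unreached endpoint = highest concentration. GI50 is the concentration that inhibits growth by half. At the TGI there is no net growth.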

Consider `COC(C(=O)[O][Ge]([CH3])([CH3])[CH3])c1ccccc1` (centres undefined), for which the GI50 with SK-OV-3 ovarian, in the assay on SNB-19 CNS, in the assay on A549 NSCLC, in the assay on OVCAR-8 ovarian, in the assay with M14 melanoma and in the assay with SNB-75 CNS was more than 100 µM in each case. In addition, the GI50 in the assay on MALME-3M melanoma, in the assay with EKVX NSCLC, with HCC-2998 colon and with NCI-H460 lung was more than 100 µM each time. The TGI in the assay on SK-OV-3 ovarian, in the assay with SNB-19 CNS, in the assay on A549 NSCLC, with OVCAR-8 ovarian, in the assay with M14 melanoma and in the assay with SNB-75 CNS was more than 100 µM in each case. The TGI with MALME-3M melanoma, in the assay with EKVX NSCLC, in the assay on HCC-2998 colon and in the assay with NCI-H460 lung was more than 100 µM in each case.

As to `CC1C=C(OC(=O)c2ccccc2)C(=O)C(n2cc(F)c(=O)[nH]c2=O)O1` (centres undefined), the TGI in the assay on SK-OV-3 ovarian, in the assay on SNB-19 CNS, in the assay on A549 NSCLC, in the assay with OVCAR-8 ovarian, with M14 melanoma and in the assay on SNB-75 CNS was more than 100 µM in each case. Further, the TGI with MALME-3M melanoma, with EKVX NSCLC, in the assay on HCC-2998 colon and with NCI-H460 lung was more than 100 µM throughout.

Take `CCCC(=O)OC1C(C(O)CO)OC2OC(C)(C)OC21` (centres undefined): the TGI with SK-OV-3 ovarian, in the assay on SNB-19 CNS, in the assay on A549 NSCLC, with OVCAR-8 ovarian, in the assay on M14 melanoma and with SNB-75 CNS was more than 100 µM throughout. For the same molecule, the TGI in the assay on MALME-3M melanoma, in the assay on EKVX NSCLC, with HCC-2998 colon and in the assay on NCI-H460 lung was more than 100 µM each time.

With `O=c1cc(-c2ccccc2)[nH]c2ccccc12`, the GI50 in the assay on SK-OV-3 ovarian is 1.48 µM; in the assay on SNB-19 CNS, 0.881 µM; in the assay on A549 NSCLC, 1.88 µM; in the assay with OVCAR-8 ovarian, 4.18 µM; in the assay with M14 melanoma, 0.941 µM; with SNB-75 CNS, 0.542 µM. Besides, the GI50 is more than 100 µM with MALME-3M melanoma, 8.95 µM in the assay with EKVX NSCLC, 0.639 µM with HCC-2998 colon and 0.398 µM with NCI-H460 lung. The TGI in the assay with SK-OV-3 ovarian was more than 92.1 µM; in the assay with SNB-19 CNS it was more than 100 µM; in the assay with A549 NSCLC it was more than 100 µM; in the assay on OVCAR-8 ovarian, more than 100 µM; with M14 melanoma, more than 100 µM; with SNB-75 CNS it was more than 100 µM. For the same molecule, the TGI is more than 100 µM in the assay with MALME-3M melanoma, more than 100 µM in the assay with EKVX NSCLC and more than 50.9 µM in the assay with NCI-H460 lung.

For `CC1OC(O[C@@H]2OC=C(C=O)[C@@]3(O)CC[C@H](C)[C@@H]23)C(O)C(O)C1O` (some centres undefined), the TGI with SK-OV-3 ovarian, in the assay on SNB-19 CNS, in the assay on A549 NSCLC, with OVCAR-8 ovarian, in the assay on M14 melanoma and with SNB-75 CNS was more than 100 µM each time. The TGI in the assay with MALME-3M melanoma, with EKVX NSCLC, in the assay on HCC-2998 colon and with NCI-H460 lung was more than 100 µM throughout.

Regarding `Cc1c(C(=O)C/C(=N\O)C(=O)Nc2cc(Cl)c(Cl)cc2Cl)[n+](=O)c2ccccc2n1[O-]`, the TGI is more than 100 µM with SK-OV-3 ovarian; more than 100 µM in the assay on SNB-19 CNS; more than 100 µM with A549 NSCLC; 40.7 µM in the assay with OVCAR-8 ovarian; 15.9 µM in the assay with M14 melanoma; more than 100 µM in the assay with SNB-75 CNS. Besides, the TGI in the assay on MALME-3M melanoma is 21.1 µM; with EKVX NSCLC, 43.6 µM; in the assay on HCC-2998 colon, 23.5 µM; with NCI-H460 lung, 35.2 µM.

Take `Cc1ccc(NC(=O)C(=O)C(C#N)c2ccccc2C)cc1C` (centres undefined): the TGI in the assay on SK-OV-3 ovarian, in the assay with SNB-19 CNS, in the assay with A549 NSCLC, in the assay with OVCAR-8 ovarian, with M14 melanoma and in the assay with SNB-75 CNS was more than 100 µM each time. For the same molecule, the TGI is more than 100 µM with MALME-3M melanoma, more than 100 µM in the assay on EKVX NSCLC, more than 82 µM with HCC-2998 colon and more than 79.9 µM with NCI-H460 lung.

Regarding `O=C(N/C(=C\c1ccc2c(c1)OCO2)c1nc2ccccc2[nH]1)c1ccccc1`, the TGI in the assay on SK-OV-3 ovarian is more than 100 µM; with SNB-19 CNS it was more than 100 µM; in the assay on A549 NSCLC, more than 100 µM; in the assay on OVCAR-8 ovarian it was more than 100 µM; with M14 melanoma, more than 90.9 µM; in the assay on SNB-75 CNS, more than 74 µM. Further, the TGI is more than 89.7 µM in the assay on MALME-3M melanoma, more than 100 µM with EKVX NSCLC, more than 87.3 µM in the assay with HCC-2998 colon and more than 100 µM in the assay with NCI-H460 lung.

As to `CCOC(=O)c1c2c(n3ccccc13)C(=O)c1ccccc1C2=O`, the TGI in the assay with SK-OV-3 ovarian is more than 100 µM; in the assay with SNB-19 CNS, more than 100 µM; in the assay with A549 NSCLC, 43.2 µM; in the assay on OVCAR-8 ovarian it was more than 100 µM; in the assay on M14 melanoma, more than 100 µM; with SNB-75 CNS, 74.6 µM. The TGI in the assay with MALME-3M melanoma is more than 100 µM; in the assay with EKVX NSCLC, more than 100 µM; with HCC-2998 colon, 7.59 µM; with NCI-H460 lung, 15.6 µM.

Regarding `Nc1nc2c(c3ncncc13)C(c1cccc(C(F)(F)F)c1)Cc1ncncc1-2` (centres undefined), the GI50 was 5.07 µM in the assay with SK-OV-3 ovarian; 4.88 µM in the assay with SNB-19 CNS; 5.45 µM in the assay with A549 NSCLC; 8.08 µM in the assay with OVCAR-8 ovarian; 2.97 µM in the assay with M14 melanoma; 3.11 µM in the assay on SNB-75 CNS. The GI50 with MALME-3M melanoma is 10.2 µM; with EKVX NSCLC it was 6.18 µM; with HCC-2998 colon, 11.2 µM; with NCI-H460 lung, 3.96 µM. Also, the TGI in the assay with SK-OV-3 ovarian was more than 100 µM; in the assay on SNB-19 CNS, 33.2 µM; in the assay with A549 NSCLC it was more than 100 µM; in the assay with OVCAR-8 ovarian, more than 100 µM; in the assay on M14 melanoma it was 10 µM; in the assay on SNB-75 CNS, 43.7 µM. Moreover, the TGI is 44.7 µM in the assay on MALME-3M melanoma, more than 100 µM in the assay with EKVX NSCLC, 48.7 µM in the assay on HCC-2998 colon and more than 100 µM in the assay on NCI-H460 lung.

Consider `COc1ccc(OC)c(NC(=O)C2=C(C)NC(C)=C(C(=O)Nc3cc(OC)ccc3OC)C2c2ccccc2)c1`, for which the TGI with SK-OV-3 ovarian is more than 100 µM; with SNB-19 CNS, more than 100 µM; in the assay with A549 NSCLC, more than 100 µM; in the assay with OVCAR-8 ovarian it was more than 100 µM; in the assay on M14 melanoma, more than 100 µM; in the assay with SNB-75 CNS it was 91 µM. In addition, the TGI with MALME-3M melanoma, in the assay with EKVX NSCLC, in the assay with HCC-2998 colon and with NCI-H460 lung was more than 100 µM each time.
